Data taken from PubChem BioAssay (NCI).
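All cell lines were grown in 96-well plates and treated with compound for 48 hours. The concentration for full growth arrest is given as TGI.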

Tests used:
Experiment in all cases: NCI anticancer screen, dose series, 48 h
SNB-78 CNS = tested on: SNB-78 CNS
CCRF-CEM leukemia = tested on: CCRF-CEM leukemia
KM12 colon = tested on: KM12 colon
SR leukemia = tested on: SR leukemia
RPMI-8226 leukemia = tested on: RPMI-8226 leukemia
OVCAR-8 ovarian = tested on: OVCAR-8 ovarian
DMS 114 small cell lung = tested on: DMS 114 small cell lung
SK-OV-3 ovarian = tested on: SK-OV-3 ovarian
DMS 273 small cell lung = tested on: DMS 273 small cell lung
NCI-H23 lung = tested on: NCI-H23 lung
HCC-2998 colon = tested on: HCC-2998 colon
HOP-18 NSCLC = tested on: HOP-18 NSCLC
HT29 colon = tested on: HT29 colon
UACC-257 melanoma = tested on: UACC-257 melanoma
786-0 renal = tested on: 786-0 renal
NCI-H226 lung = tested on: NCI-H226 lung
SF-295 CNS = tested on: SF-295 CNS
UACC-62 melanoma = tested on: UACC-62 melanoma
COLO 205 colon = tested on: COLO 205 colon
NCI-H522 lung = tested on: NCI-H522 lung
U251 CNS = tested on: U251 CNS
LXFL 529 NSCLC = tested on: LXFL 529 NSCLC
ACHN renal = tested on: ACHN renal
TK-10 renal = tested on: TK-10 renal
OVCAR-4 ovarian = tested on: OVCAR-4 ovarian
SN12C renal = tested on: SN12C renal
HOP-62 NSCLC = tested on: HOP-62 NSCLC
HOP-92 NSCLC = tested on: HOP-92 NSCLC
DLD-1 colon = tested on: DLD-1 colon
SK-MEL-28 melanoma = tested on: SK-MEL-28 melanoma
NCI-H460 lung = tested on: NCI-H460 lung
UO-31 renal = tested on: UO-31 renal
SW-620 colon = tested on: SW-620 colon
A498 renal = tested on: A498 renal
K-562 leukemia = tested on: K-562 leukemia
OVCAR-5 ovarian = tested on: OVCAR-5 ovarian
SK-MEL-5 melanoma = tested on: SK-MEL-5 melanoma
MALME-3M melanoma = tested on: MALME-3M melanoma
IGROV1 ovarian = tested on: IGROV1 ovarian
MOLT-4 leukemia = tested on: MOLT-4 leukemia
HCT-116 colon = tested on: HCT-116 colon
SNB-75 CNS = tested on: SNB-75 CNS
SF-268 CNS = tested on: SF-268 CNS
OVCAR-3 ovarian = tested on: OVCAR-3 ovarian
M14 melanoma = tested on: M14 melanoma
A549 NSCLC = tested on: A549 NSCLC
SK-MEL-2 melanoma = tested on: SK-MEL-2 melanoma
SF-539 CNS = tested on: SF-539 CNS
M19-MEL melanoma = tested on: M19-MEL melanoma
HL-60(TB) leukemia = tested on: HL-60(TB) leukemia
HCT-15 colon = tested on: HCT-15 colon
EKVX NSCLC = tested on: EKVX NSCLC
KM20L2 colon = tested on: KM20L2 colon
LOX IMVI melanoma = tested on: LOX IMVI melanoma
CAKI-1 renal = tested on: CAKI-1 renal
SNB-19 CNS = tested on: SNB-19 CNS
RXF 393 renal = tested on: RXF 393 renal

`Clc1ccc(C2=NOC(C3CCCCC3)C2)cc1` (configuration not stated) was tested, and the TGI (SNB-78 CNS) was over 100 µM, the TGI (CCRF-CEM leukemia) was over 100 µM and the TGI (KM12 colon) was over 100 µM. It also gave a TGI (SR leukemia) of over 100 µM, a TGI (RPMI-8226 leukemia) of over 100 µM and a TGI (OVCAR-8 ovarian) of over 100 µM. For the same compound, the TGI (DMS 114 small cell lung) was over 100 µM, the TGI (SK-OV-3 ovarian) was over 100 µM and the TGI (DMS 273 small cell lung) was over 100 µM. For the same compound, the TGI (NCI-H23 lung) was over 100 µM, the TGI (HCC-2998 colon) was over 100 µM and the TGI (HOP-18 NSCLC) was over 100 µM. For the same compound, the TGI (HT29 colon) was over 100 µM, the TGI (UACC-257 melanoma) was over 100 µM and the TGI (786-0 renal) was over 100 µM. The TGI (NCI-H226 lung) was over 100 µM, the TGI (SF-295 CNS) was over 100 µM and the TGI (UACC-62 melanoma) was over 100 µM. It also gave a TGI (COLO 205 colon) of over 100 µM, a TGI (NCI-H522 lung) of over 100 µM and a TGI (U251 CNS) of over 100 µM. For the same compound, the TGI (LXFL 529 NSCLC) was over 100 µM, the TGI (ACHN renal) was over 100 µM and the TGI (TK-10 renal) was over 100 µM. The TGI (OVCAR-4 ovarian) was over 100 µM, the TGI (SN12C renal) was over 100 µM and the TGI (HOP-62 NSCLC) was over 100 µM. For the same compound, the TGI (HOP-92 NSCLC) was over 100 µM, the TGI (DLD-1 colon) was over 100 µM and the TGI (SK-MEL-28 melanoma) was over 100 µM. The TGI (NCI-H460 lung) was over 100 µM, the TGI (UO-31 renal) was over 100 µM and the TGI (SW-620 colon) was over 100 µM. For the same compound, the TGI (A498 renal) was over 100 µM, the TGI (K-562 leukemia) was over 100 µM and the TGI (OVCAR-5 ovarian) was over 100 µM. For the same compound, the TGI (SK-MEL-5 melanoma) was over 100 µM, the TGI (MALME-3M melanoma) was over 100 µM and the TGI (IGROV1 ovarian) was over 100 µM. For the same compound, the TGI (MOLT-4 leukemia) was over 100 µM, the TGI (HCT-116 colon) was over 100 µM and the TGI (SNB-75 CNS) was over 100 µM. For the same compound, the TGI (SF-268 CNS) was over 100 µM, the TGI (OVCAR-3 ovarian) was over 100 µM and the TGI (M14 melanoma) was over 100 µM. For the same compound, the TGI (A549 NSCLC) was over 100 µM, the TGI (SK-MEL-2 melanoma) was over 100 µM and the TGI (SF-539 CNS) was over 100 µM. It also gave a TGI (M19-MEL melanoma) of over 100 µM, a TGI (HL-60(TB) leukemia) of over 100 µM and a TGI (HCT-15 colon) of over 100 µM.
With `CCOC(=O)C1(c2ccccc2)CCCNCC1` (configuration not stated) the TGI (SNB-78 CNS) was over 100 µM, the TGI (CCRF-CEM leukemia) was over 100 µM and the TGI (KM12 colon) was over 100 µM. The TGI (SR leukemia) was 88.8 µM, the TGI (RPMI-8226 leukemia) was over 100 µM and the TGI (OVCAR-8 ovarian) was over 100 µM. For the same compound, the TGI (EKVX NSCLC) was over 100 µM, the TGI (SK-OV-3 ovarian) was over 100 µM and the TGI (DMS 273 small cell lung) was over 100 µM. It also gave a TGI (NCI-H23 lung) of over 100 µM, a TGI (HCC-2998 colon) of over 100 µM and a TGI (HOP-18 NSCLC) of over 100 µM. The TGI (KM20L2 colon) was over 100 µM, the TGI (HT29 colon) was over 100 µM and the TGI (UACC-257 melanoma) was over 100 µM. For the same compound, the TGI (786-0 renal) was over 100 µM, the TGI (NCI-H226 lung) was over 100 µM and the TGI (SF-295 CNS) was over 100 µM. The TGI (UACC-62 melanoma) was over 100 µM, the TGI (COLO 205 colon) was over 100 µM and the TGI (NCI-H522 lung) was over 100 µM. The TGI (U251 CNS) was over 100 µM, the TGI (LXFL 529 NSCLC) was over 100 µM and the TGI (LOX IMVI melanoma) was over 100 µM. For the same compound, the TGI (ACHN renal) was over 100 µM, the TGI (CAKI-1 renal) was over 100 µM and the TGI (TK-10 renal) was over 100 µM. For the same compound, the TGI (OVCAR-4 ovarian) was over 100 µM, the TGI (SN12C renal) was over 100 µM and the TGI (HOP-62 NSCLC) was over 100 µM. It also gave a TGI (HOP-92 NSCLC) of over 100 µM, a TGI (DLD-1 colon) of over 100 µM and a TGI (SK-MEL-28 melanoma) of over 100 µM. The TGI (NCI-H460 lung) was over 100 µM, the TGI (UO-31 renal) was over 100 µM and the TGI (SW-620 colon) was over 100 µM. It also gave a TGI (SNB-19 CNS) of over 100 µM, a TGI (A498 renal) of over 100 µM and a TGI (K-562 leukemia) of over 100 µM. The TGI (OVCAR-5 ovarian) was over 100 µM, the TGI (SK-MEL-5 melanoma) was over 100 µM and the TGI (MALME-3M melanoma) was over 100 µM. The TGI (IGROV1 ovarian) was over 100 µM, the TGI (MOLT-4 leukemia) was over 100 µM and the TGI (HCT-116 colon) was over 100 µM. The TGI (SNB-75 CNS) was over 100 µM, the TGI (SF-268 CNS) was over 100 µM and the TGI (OVCAR-3 ovarian) was over 100 µM. The TGI (M14 melanoma) was over 100 µM, the TGI (A549 NSCLC) was over 100 µM and the TGI (SK-MEL-2 melanoma) was over 100 µM. The TGI (M19-MEL melanoma) was over 100 µM, the TGI (HL-60(TB) leukemia) was over 100 µM and the TGI (RXF 393 renal) was over 100 µM. It also gave a TGI (HCT-15 colon) of over 100 µM.
With `CCCC(=O)c1ccc2c(ccc(=O)n2C)c1` the TGI (CCRF-CEM leukemia) was over 100 µM, the TGI (KM12 colon) was over 100 µM and the TGI (RPMI-8226 leukemia) was over 100 µM. For the same compound, the TGI (OVCAR-8 ovarian) was over 100 µM, the TGI (DMS 114 small cell lung) was over 100 µM and the TGI (EKVX NSCLC) was over 100 µM. It also gave a TGI (SK-OV-3 ovarian) of over 100 µM, a TGI (DMS 273 small cell lung) of over 100 µM and a TGI (NCI-H23 lung) of over 100 µM. For the same compound, the TGI (HCC-2998 colon) was over 100 µM, the TGI (HOP-18 NSCLC) was over 100 µM and the TGI (KM20L2 colon) was over 100 µM. The TGI (HT29 colon) was over 100 µM, the TGI (786-0 renal) was over 100 µM and the TGI (NCI-H226 lung) was over 100 µM. It also gave a TGI (SF-295 CNS) of over 100 µM, a TGI (UACC-62 melanoma) of over 100 µM and a TGI (COLO 205 colon) of over 100 µM. It also gave a TGI (NCI-H522 lung) of over 100 µM, a TGI (U251 CNS) of over 100 µM and a TGI (LXFL 529 NSCLC) of over 100 µM. The TGI (LOX IMVI melanoma) was over 100 µM, the TGI (CAKI-1 renal) was over 100 µM and the TGI (TK-10 renal) was over 100 µM. The TGI (OVCAR-4 ovarian) was over 100 µM, the TGI (SN12C renal) was over 100 µM and the TGI (HOP-62 NSCLC) was over 100 µM. For the same compound, the TGI (HOP-92 NSCLC) was over 100 µM, the TGI (DLD-1 colon) was over 100 µM and the TGI (SK-MEL-28 melanoma) was over 100 µM. It also gave a TGI (NCI-H460 lung) of over 100 µM, a TGI (SW-620 colon) of over 100 µM and a TGI (SNB-19 CNS) of over 100 µM. For the same compound, the TGI (A498 renal) was over 100 µM, the TGI (K-562 leukemia) was over 100 µM and the TGI (OVCAR-5 ovarian) was over 100 µM. The TGI (SK-MEL-5 melanoma) was over 100 µM, the TGI (MALME-3M melanoma) was over 100 µM and the TGI (IGROV1 ovarian) was over 100 µM. For the same compound, the TGI (MOLT-4 leukemia) was over 100 µM, the TGI (HCT-116 colon) was over 100 µM and the TGI (SNB-75 CNS) was 92.3 µM. For the same compound, the TGI (SF-268 CNS) was over 100 µM, the TGI (OVCAR-3 ovarian) was over 100 µM and the TGI (M14 melanoma) was over 100 µM. The TGI (A549 NSCLC) was over 100 µM, the TGI (SK-MEL-2 melanoma) was over 100 µM and the TGI (SF-539 CNS) was over 100 µM. For the same compound, the TGI (M19-MEL melanoma) was over 100 µM, the TGI (HL-60(TB) leukemia) was over 100 µM and the TGI (HCT-15 colon) was over 100 µM.
